# Results reported in patent EP0443573A2, “HIV protease inhibitors containing derived amino acids” (BIO-MEGA/BOEHRINGER INGELHEIM RESEARCH INC., priority 1990, dated 1991).
# pIC50: −log10 of the molar value.
# Test system: HIV
# Test: Inhibition of syncytia formation by HIV in HTLV-I transformed C8166 cells (adapted plaque assay)
# Type: cell-based, H9/HTLV-IIIB
# Settings: Human immunodeficiency virus 1, IIIB, C8166, 72 h, read-out: inhibition of syncytia formation
# Excerpt: Typical of such procedures are those described by S. Harada and N. Yamamoto, Jpn. J. Cancer Res. (Gann), 76, 432 (1985), and S. Harada et al., Science 229, 563 (1985). An assay based on the latter procedures is described in the examples hereinafter.
# The following protocol, used for screening antiviral effects of the compounds of formula 1, is adapted from a plaque assay utilizing HTLV-I transformed cells which was developed by Harada et al., supra. HTLV-I transformed cells are used in these assays because of the rapidity with which HIV will replicate in these cells. • 1. The test compound is dissolved in dimethylsulfoxide to a concentration of 5 mg/mL. The resultant solution can be stored at 4° until used. • 2. The resultant solution is diluted in RPMI 1640 (Gibco Laboratories, St. Lawrence, MA, USA) to four times (4x) the final concentration which is to be tested. Once diluted in RPMI 1640, the solution is used in the cell culture assay within 4 h. • 3. The 4x solution (50µL) is added to triplicate wells of a 96 well flat bottomed microtiter plate. RPMI […] also is added to control wells. • 4. […] Infectious titer of virus stocks are as previously determined by end point dilution on C8166 cells. […] Plates are then removed and centers of syncytia are counted in each well by low power phase contrast light microscopy. […] Percent inhibition of syncytia formation is calculated by the formula: [formula]
row,Compound,inhibition at 20 µg/mL [%]
1,COC(=O)CCC(NC(=O)CC(O)C(CC1CCCCC1)NC(=O)C(NC(=O)C(O)CO)C(C)(C)C)C(=O)NCCc1ccccc1 [(S)-HOCH₂CH(OH)C(O)-Tbg-ACHPA-Glu(OMe)NHCH₂CH₂Ph],100
2,"CCC(=O)NC(C(=O)NC(CC1CCCCC1)C(O)CC(=O)NC(CCC(=O)O)C(=O)NCCc1ccccc1)C(C)(C)C (stereo not shown) [CH3CH2C(O)-Tbg-ACHPA-Glu-NHCH2CH2Ph, CH₃CH₂C(O)-Tbg-ACHPA-Glu-NHCH₂CH₂Ph]",49

# Biological target: T1, HIV protease (Human immunodeficiency virus type 1 group M subtype B, UniProt P04585)
# T1 construct: HIV protease was expressed in E. coli; made in house; host or cells: E. coli
# Test: Recombinant HIV Protease HPLC Assay
# Type: biochemical
# Settings: recombinant HIV protease expressed in E. coli; substrate VSFNFPQITL-NH₂; pH 5.5; 37° for 30 min; HPLC readout
# Excerpt: The procedure is based on the capacity of the test compound to inhibit enzymatic cleavage by HIV protease of a decapeptide (the substrate) having an amino acid sequence which includes a known HIV protease cleavage site of a HIV polyprotein; see H.G. Krausslich et al., Proc. Natl. Acad. Sci. USA, 86, 807 (1989). Details of this assay together with the results obtained for exemplified compounds of formula 1 are described in the examples hereinafter.
# Recombinant HIV Protease HPLC Assay: Enzyme: HIV protease was expressed in E. coli [construct pBRT1 prt⁺, see W.G. Farmerie et al., Science, 236,305 (1987)], according to the following protocol: Unless stated otherwise, all solutions are aqueous solutions.
# E. coli cells containing the pBRT1 prt⁺ plasmid were used to inoculate a seed culture media composed of Luria-Bertani Broth containing 100µg/mL of ampicillin. Flasks were incubated at 37° under agitation for 17 h. Production flasks containing sterile M9 broth, supplemented with 100µg/ml of ampicillin, were inoculated at a level of 1% (v/v) using the seed culture described above. Total volume in each production flask was 500 mL in a 2 L Erlenmeyer flask. Flasks were incubated at 37° under agitation until a cell concentration corresponding to an optical density (λ = […]) of 0.6 was reached (no dilution). This time span was routinely 3-4 h. Flasks were then supplemented with 5mM isopropylthiogalactoside (IPTG, Research Organics, Cleveland, Ohio, USA) and incubation was continued until the cell concentration reached an optical density of 0.2 at 16-fold dilution. Flasks were then supplemented with 1mM phenylmethylsulfonyl fluoride (PMSF) and rapidly chilled to 4°. The bacterial cells were recovered by centrifugation at 4°. The wet pellet was stored at -70°.
# All steps below were performed at 4° unless otherwise indicated. Thawed cells were mixed with buffer A [50 mM […] HCl(Tris-HCl, pH 7.4); 0.6 mM ethylenediaminetetraacetic acid (EDTA); 0.375 M NaCl, 0.2% Nonidet P-40 ^R (BDH Chemicals Ltd., Poole, UK); 1mM PMSF], at a ratio of one part cells to nine parts buffer A. Diatomaceous earth (Celite 545 ^R , John Manville, Lompoc, CA, USA) was added at a ratio of two parts to one part of wet cell weight. The resulting slurry was homogenized at high speed (ca. 20,000 rpm) on a Waring ^R industrial blender for 8 x 15 sec. pulses. Cell debris/Celite ^R was collected by centrifugation and the resulting pellet was extracted with 4.5 parts of buffer A to one part wet solids using the homogenization procedure described above. Supernatants from both homogenization steps were combined and soluble protein was precipitated by the addition of solid (NH₄)₂SO₄ to yield a final concentration of 75% saturation. This mixture was agitated for 60 min and the precipitate was recovered by centrifugation. The resulting pellet was suspended in buffer B [50mM Tris-HCl, pH 8; 30 mM NaCl; 1 mM DL-dithiothreitol(DTT); 1 mM EDTA; 1 mM PMSF; 10% glycerol], and dialyzed for 18h against the same buffer.
# An aliquot of the dialyzed extract containing 150 mg of the protein was loaded onto a Sephadex A25 ^R anion exchange column. (Pharmacia, Uppsala, Sweden) with bed dimensions of 70 cm length and 2.5 cm diameter. The sample was eluted isocratically with buffer B at a linear flow rate of 10 cm/h. Fractions containing HIV protease activity (see below for assay description) were combined, and soluble protein was precipitated by the addition of saturated aqueous (NH₄)₂SO₄ to yield a total (NH₄)₂SO₄ concentration of 85% saturation. Precipitated protein was removed by centrifugation and the resulting pellet was dissolved in buffer C[50 mM 2-(4-morpholino)ethanesulfonic acid (MES), pH 5.5; 150 mM NaCl; 1 mM DTT; 1 mM EDTA; 10% glycerol]. This preparation was dialyzed for 18h against buffer C, and then frozen at -70°. All crude extracts were purified by chromatography in aliquots containing 150 mg of protein in the same manner as described above. […]
row,Compound,pIC50
1,CCC(CC)C(=O)NC(C(=O)NC(CC1CCCCC1)C(O)CC(=O)NC(CC1CC1)C(=O)NCCCc1ccccc1)C(C)C (stereo not shown) [(C2H5)2CHC(O)-Val-ACHPA-Cpa-NHCH2CH2CH2Ph],6.87
2,"CC(C)(C)CC(=O)NC(C(=O)NC(CC1CCCCC1)C(O)CC(=O)NC(CCC(=O)O)C(=O)NCCc1ccccc1)C(C)(C)C (stereo not shown) [(CH3)3CCH2C(O)-Tbg-ACHPA-Glu-NHCH2CH2Ph, (CH₃)₃CCH₂C(O)-Tbg-ACHPA-Glu-NHCH₂CH₂Ph]",6.96
3,COC(=O)CCC(NC(=O)CC(O)C(CC1CCCCC1)NC(=O)C(NC(=O)C(O)CO)C(C)(C)C)C(=O)NCCc1ccccc1 [(S)-HOCH₂CH(OH)C(O)-Tbg-ACHPA-Glu(OMe)NHCH₂CH₂Ph],6.70
4,CC(C)(C)C(NC(=O)C(O)CO)C(=O)NC(CC1CCCCC1)C(O)CC(=O)NC(CCC(=O)O)C(=O)NCCc1ccccc1 [(S)-HOCH₂CH(OH)C(O)-Tbg-ACHPA-Glu-NHCH₂CH₂Ph],8.04
5,"CC(=O)NC(C(=O)NC(CC1CCCCC1)C(O)CC(=O)NC(CC1CC1)C(=O)NCCc1ccccc1)C(C)(C)C (stereo not shown) [Ac-Tbg-ACHPA-Cpa-NHCH2CH2Ph, Ac-Tbg-ACHPA-Cpa-NHCH₂CH₂Ph]",7.03
6,"COC(=O)CCC(NC(=O)CC(O)C(CC1CCCCC1)NC(=O)C(NC(C)=O)C(C)(C)C)C(=O)NCCc1ccccc1 (stereo not shown) [Ac-Tbg-ACHPA-Glu(OMe)-NHCH2CH2Ph, Ac-Tbg-ACHPA-Glu(OMe)-NHCH₂CH₂Ph]",6.82
7,"CC(=O)NC(C(=O)NC(CC1CCCCC1)C(O)CC(=O)NC(CCC(=O)O)C(=O)NCCc1ccccc1)C(C)(C)C (stereo not shown) [Ac-Tbg-ACHPA-Glu-NHCH2CH2Ph, Ac-Tbg-ACHPA-Glu-NHCH₂CH₂Ph]",7.92
8,"COC(=O)CCC(NC(=O)CC(O)C(CC1CCCCC1)NC(=O)C(NC(C)=O)C(C)C)C(=O)NCCc1ccccc1 (stereo not shown) [Ac-Val-ACHPA-Glu(OMe)-NHCH2CH2Ph, Ac-Val-ACHPA-Glu(OMe)NHCH₂CH₂Ph]",6.32
9,"CC(=O)NC(C(=O)NC(CC1CCCCC1)C(O)CC(=O)NC(CCC(=O)O)C(=O)NCCc1ccccc1)C(C)C (stereo not shown) [Ac-Val-ACHPA-Glu-NHCH2CH2Ph, Ac-Val-ACHPA-Glu-NHCH₂CH₂Ph]",7.51
10,"CC(=O)NC(C(=O)NC(CNC(CC(C)C)C(=O)NC(CCC(=O)O)C(=O)NCCc1ccccc1)Cc1ccccc1)C(C)C (stereo not drawn) [Ac-Val-Pheψ[CH2NH]Leu-Glu-NHCH2CH2Ph, Ac-Val-PheΨ[CH₂NH]Leu-Glu-NHCH₂CH₂Ph]",7.80
11,"CCC(=O)NC(C(=O)NC(CC1CCCCC1)C(O)CC(=O)NC(CCC(=O)O)C(=O)NCCc1ccccc1)C(C)(C)C (stereo not shown) [CH3CH2C(O)-Tbg-ACHPA-Glu-NHCH2CH2Ph, CH₃CH₂C(O)-Tbg-ACHPA-Glu-NHCH₂CH₂Ph]",7.82
